Experiment [1] in a line: Vesicle leakage (calcein-cobalt) assay. The conditions noted are these: 37° C. As to the method:
Lipid Preparation and Formation of Unilamellar Phospholipid Vesicles. Lipid mixtures and vesicles were prepared as described previously (Laszlo et al. 2010. ibid). Lipids were prepared from appropriate amounts of DOPC in chloroform and LDOG-SS- or LDOG-SH (at 1- or 5-mol % of total lipids) in ethanol added to clean amber vials and then gently mixed. Solvents were removed under a stream of argon and then vacuum. The dried lipids were rehydrated in the appropriate buffer and mixed periodically to form multilamellar phospholipid vesicles. The vesicles were subjected to freeze-thaw cycles and then extrusion to form unilamellar vesicles (approx. 125 nm in diameter). Vesicles were covered with argon, protected from light and stored at 4° C. until used. DOPC vesicles incorporating 1- or 5-mol % ALA or DHLA were similarly produced.
Vesicle Leakage (Calcein-Cobalt). Vesicles with and without LDOG were evaluated for membrane integrity using a leakage assay described previously (Evans. Room-temperature ionic liquid cations act as short-chain surfactants and disintegrate a phospholipid bilayer. Colloid. Surface. A 2006, 274:11-17; and Laszlo et al. 2010. ibid). Briefly, the leakage assay was designed such that the low fluorescent signal of the entrapped calcein-cobalt complex increased as vesicles leaked their contents and cobalt was stripped from calcein by external EDTA. Vesicle leakage was monitored with a fluorometer. Samples were continuously stirred in 1-cm path length quartz cuvettes 37° C., with measurements taken for 30 min at 5-s intervals. Experiments were conducted in triplicate. Leakage percentage (L) was determined from the intensity of the fluorescent signal, 100×(Ft−Fo)/(Fmax−Fo), where Ft was the fluorescent signal over time, Fo was the extrapolated initial signal at time zero, and Fmax was the fluorescent signal at the end of the experiment after rupture by addition of Triton X-100 solution. The apparent rate constant k (ms^−1) and maximum extent of vesicle leakage (L∞), prior to vesicle rupture, were obtained by fitting to the equation: Lt=L∞(1−exp(−kt)).

Experiment [2] can be described thus: Lipid peroxidation inhibition capacity assay (AAPH initiator, C11-Bodipy reporter). The following applies: for antioxidant capacity compared with Trolox at the same concentration / oxidation protection of DOPC vesicles (C11-Bodipy fluorescence): in words; for oxidation protection of DOPC vesicles (C11-Bodipy fluorescence): AAPH. Type of experiment: biochemical. The protocol: Lipid Oxidation Inhibition. Lipid oxidation inhibition by LDOG was measured by the lipid peroxidation inhibition capacity assay, which employs AAPH as a free-radical initiator and the lipidic reporter molecule C11-Bodipy (Zhang et al., Lipid peroxidation inhibition capacity assay for antioxidants based on liposomal membranes. Mol. Nutr. Food Res. 2006, 50:714-724). C11-Bodipy fluoresces at 595 nm until it is oxidized, at which point its fluorescence shifts to ˜520 nm (Drummen et al., C11-bodipy581/591, an oxidation-sensitive fluorescent lipid peroxidation probe: (micro)spectroscopic characterization and validation of methodology. Free Radical Biol. Med. 2002, 33:473-490). Conditions for the assay using modified glycerides have been detailed previously (Laszlo et al. 2010. ibid). DOPC and C11-Bodipy were combined in a vial, dried to a film, and then rehydrated in 20 mM Tris-HCl, pH 7.4. When included, ALA, DHLA, LDOG-SS-, or LDOG-SH (at 1- or 5-mol % of total lipids) in ethanol were added prior to formation of vesicles. Unilamellar vesicles were prepared from rehydrated lipids as described above. Samples were diluted to a final concentration of 2.5 mM DOPC (2.4 μM C11-Bodipy) and allowed to equilibrate to 37° C. for 15 min prior to the introduction of AAPH. From the time of AAPH addition (40 mM final concentration), fluorescence intensity (excitation at 540 nm, emission at 595 nm) was measured every minute for 180 min. Experiments were conducted in triplicate at least. The relative fluorescence intensity was calculated by dividing the reading at each minute by the initial fluorescence at the beginning of the experiment (Ft/Fo). Background subtraction was accomplished using the appropriate vesicles without C11-Bodipy.
The water-soluble antioxidant Trolox was used for comparison. Trolox was combined with DOPC and C11-Bodipy, dried, and then rehydrated as described above. A final Trolox concentration range of 10 to 125 μM was employed. The peroxyl radical scavenging capacity of the test antioxidant relative to Trolox (i.e., the relative antioxidation activity) was calculated using the following equation
[formula] where AUCSample is the area under the fluorescence curve (AUC) for vesicles containing antioxidant, AUCTrolox is the area under the curve for vesicles containing 50 μM Trolox (thereby arbitrarily assigned a relative antioxidation activity value of 1.0), AUC0 is the area under the curve for vesicles containing only C11-Bodipy, and molSample is the molar concentration of the antioxidant (Naguib, A fluorometric method for measurement of peroxyl radical scavenging activities of lipophilic antioxidants. Anal. Biochem. 1998, 265:290-298). The AUC was calculated from the average of three different methods, those described by Cao and coworkers (Cao et al., Oxygen-radical absorbance capacity assay for antioxidants. Free Radical Biol. Med. 1993, 14:303-311), Naguib (Naguib, Antioxidant activities of astaxanthin and related carotenoids. J. Agric. Food. Chem. 2000, 48:1150-1154), and Zhang and coworkers (Zhang et al. 2006. ibid).

For experiment [3] the following is noted: earlier study (Laszlo et al. 2010); cited from earlier work.
Setting [4] is: antioxidant amount 1 mol % in DOPC vesicles.
Where [5] appears, read: antioxidant amount 5 mol % in DOPC vesicles.
Setting [6] is: concentration 25 μM, relative to 50 μM Trolox, DOPC vesicles, 37° C.
The mark [7] stands for this setting: concentration 125 μM, relative to 50 μM Trolox, DOPC vesicles, 37° C.

As to `O=C(O)CCCC[C@@H](S)CCS` (racemic) [DHLA, dihydrolipoic acid], the leakage rate constant in experiment [1] (setting [4]) is 1.43 ± 1.25 ms^−1 · 10^3; in experiment [1] (setting [5]), 0.48 ± 0.05 * ms^−1 · 10^3. The results for the relative antioxidant capacity in experiment [2] (setting [6]) and in experiment [2] (setting [7]) were 1.95 ± 0.03 and 1.12 ± 0.02, respectively. In addition, the “antioxidant capacity compared with Trolox at the same concentration” value in experiment [2] is “double”.
`O=C(O)CCCCC1CCSS1` (stereo not drawn) [ALA, α-Lipoic acid]: the leakage rate constant in experiment [1] (setting [4]) is on record as 5.19 ± 1.32 * ms^−1 · 10^3; in experiment [1] (setting [5]) it was 3.98 ± 1.69 ms^−1 · 10^3. For the same compound, the relative antioxidant capacity in experiment [2] (setting [6]) turned out to be 0.61 ± 0.26; in experiment [2] (setting [7]) it was 0.29 ± 0.05.
Take `Cc1c(C)c2c(c(C)c1O)CCC(C)(C(=O)O)O2` (stereo not shown) [Trolox]: the relative antioxidant capacity in experiment [2] (concentration 10 μM, relative to 50 μM Trolox, DOPC vesicles, 37° C.) was found to be 0.98 ± 0.28; in experiment [2] (setting [6]), 0.80 ± 0.09; in experiment [2] (concentration 50 μM, reference arbitrarily assigned 1.0), 1.00; in experiment [2] (setting [7]), 0.80 ± 0.08.
With “dihydrolipoyl dioleoylglycerol [LDOG—SH]”, the results for the leakage rate constant in experiment [1] (setting [4]) and in experiment [1] (setting [5]) were 4.90 ± 0.90 * ms^−1 · 10^3 and 1.88 ± 0.01 ms^−1 · 10^3, respectively. Further, the “oxidation protection of DOPC vesicles (C11-Bodipy fluorescence)” value in experiment [2] (37° C.) is “markedly extended the probe's fluorescent period”. The relative antioxidant capacity in experiment [2] (setting [6]) is listed as 2.46 ± 0.10; in experiment [2] (setting [7]) it was 1.21 ± 0.04. Also, the “antioxidant capacity compared with Trolox at the same concentration” value in experiment [2] is on record as “double”.
For feruloyl dioleoylglycerol, the “antioxidant capacity compared with Trolox” value in experiment [3] is reported as “slightly less”.
For the compound lipoyl dioleoylglycerol [LDOG—SS—], the leakage rate constant was 0.43 ± 0.12 * ms^−1 · 10^3 in experiment [1] (setting [4]) and 0.31 ± 0.06 * ms^−1 · 10^3 in experiment [1] (setting [5]). The “oxidation protection of DOPC vesicles (C11-Bodipy fluorescence)” value in experiment [2] (37° C.) was “afforded little oxidation protection”. Moreover, the relative antioxidant capacity in experiment [2] (setting [6]) came out at 0.09 ± 0.01; in experiment [2] (setting [7]), 0.02 ± 0.002.

The values above are taken from patent publication US8455666B1, “Vegetable oil esterified lipoic acid” (The United States of America, as represented by the …, priority 2011, dated 2013).
